According to patent US20230003715A1, “AZAPODOPHYLLOTOXIN DERIVATIVES AND METHODS OF TREATING LYMPHOMA AND KIDNEY CANCER” (The Board of Trustees of the Leland Stanford Junior …, priority 2019, published 2023):

How the values were obtained:
murine RCC E28 cells = assay: Proliferation of murine RCC E28 cells (viable cell count); type: cell-based; details: for sensitivity of MYC-driven RCC line to compound: 140 nM and 70 nM
Excerpt: In addition, murine renal cell carcinoma E28 cell line was used in this study. These cells were maintained in DMEM supplemented with 10% (vol/vol) FBS, 1% glutamine, 1% sodium pyruvate, 1% non-essential amino acids, and Antibiotic-Antimycotic.
(§1) A 50 microliter volume of cells was taken from the culture medium and combined with an equal volume of 0.4% Trypan blue stain. Then, 10 microliters of this 1:1 mixture was pipetted onto a slide and placed into a hemocytometer for cell counting. The viable cell count was used for measuring cell proliferation in the sample.
Activity of compounds NSC750212, NSC750719, NSC750722, and NSC756089 (see, FIG. 1) was investigated on a MYC-driven RCC line derived from a transgenic mouse model using low dose ranges of 280 nM, 140 nM, and 70 nM. […] FIG. 2, illustrates the results of treatment of murine RCC E28 cells with, from left to right: DMSO and corresponding AZP derivatives at concentrations of 70 nM, 140 nM and 280 nM. Even at 70 nM, NSC750212 causes about 90% reduction of cell proliferation compared to the vehicle control (DMSO).

human RCC A498 cell line = assay: Proliferation / viability of human RCC A498 cell line; type: cell-based; details: for reduction in viability / suppression: 70 nM, 48 hours, human RCC A498; for SAR analysis: relative activity: RCC cell lines, substitution on C-4 phenyl ring
Excerpt: as §1
To further expand the structure activity relationship (SAR), six additional AZP derivatives were synthesized: AR-02, AR-03, AR-038, AR-051, AR-061 and AR-065, with different substituents on the C-4 phenyl ring (FIG. 1). Having validated that exemplary AZP compounds show efficacy in our murine-derived RCC line, it was sought to determine if this finding could be relevant in human RCC line, A498. Exemplary compound NSC750212 and newly synthesized analogues were tested in A498 cell line (FIG. 3).

[1] = test system: DND-41 (child T lymphoblastic leukemia); assay: Proliferation of lymphoma line DND-41; type: cell-based, human
Excerpt: (§2) Human T-cell acute lymphoblastic leukemias CCRF, DND-41, KOPT-K1, human B-cell Burkitt's lymphoma P493-6, and murine lymphoma 6780 were used in this study. Human and mouse lymphomas were all maintained in RPMI supplemented with 10% (vol/vol) FBS, 1% glutamine, 1% sodium pyruvate, 1% non-essential amino acids, and Antibiotic-Antimycotic. All cell culture reagents used were obtained from Gibco (Thermo Fisher Scientific Inc.).
as §1
(§3) Activity of exemplary compounds against lymphomas was also investigated. […] FIG. 4 illustrates proliferative responses of various human lymphoma lines, from left to right: CCRF, DND-41, KOPR, and MYC-driven lymphoma lines P493 and 6780, at doses of 70 nM, 140 nM, and 280 nM vs a control (DMSO). […] KOPT and P-493 still show a significant but much less suppression, at roughly 85%. At 140 nM, CCRF and 6780 show an increase in suppression at roughly 92% and 94%, respectively.

monoglycerols = assay: DESI-MSI of monoglycerols in treated RCC; type: in vivo, mouse; details: primary MYC-driven RCC, upon termination of treatment
Excerpt: DESI-MSI functions by directing a pneumatically assisted solvent electrospray onto the surface of interest (Takats, Wiseman, Gologan, & Cooks, 2004). The electrosprayed solvent droplets dissolve certain chemical constituents off the surface investigated and also induce the formation of secondary charged-droplets that take off from the surface. These secondary droplets already contain constituents of the sample and produce molecular ions of the analytes upon evaporation in the atmospheric pressure interface of the mass spectrometer. This way, electrospray-like mass spectrometric information is obtained on the sample, featuring multiply charged ions and solvent adducts among other electrospray-specific spectral features.
Though we expected a complete depletion of metabolism upon tubulin inhibition by NSC750212, our DESI-MSI analyses uncover a more interesting mechanism. […] Monoglycerol metabolism has been implicated in cancer, due to the high need of cancer cells of energy and building blocks. […] As described herein, DESI-MSI is a valuable tool for use in uncovering the mechanism of action of exemplary azapodophyllotoxin derivatives.

bovine tubulin = assay: Tubulin Polymerization Assay (EMD Millipore); type: biochemical; details: compared to positive control Nocodazole and negative control Paclitaxel
Experimental: The Tubulin Polymerization Assay (EMD Millipore) was used to confer the mechanism of azapodophyllotoxin derivatives. The polymerization reaction was conducted in a 96-well plate. Paclitaxel was used as the non-tubulin-inhibiting negative control, and Nocodazole was used as the tubulin-inhibiting positive control. First, a solution of 99% pure bovine tubulin stock solution in 1× polymerization buffer (PB) containing 1 mM GTP was made. Second, a 1:9 mixture of each drug and control with PB-GTP solution was also prepared. In each well, 60 microliters of the first solution (99% tubulin solution in 1×PB and 1 mM GTP) was combined with 60 microliters of one of each of the prepared 1:9 drug to PB-GTP solutions. All solutions were prepared on ice prior to combining and placement into the spectrophotometer. Tubulin assembly was measured through turbidity variation (light scattering) in the spectrophotometer every 30 seconds at 350 nm (with shaking in between each reading) over the course of 90 minutes.
Given the structure of NSC750212 and computational docking studies of Azapodophyllotoxins in general, it has been stipulated that they may target tubulins. Using EMD Millipore Tubulin Polymerization Assay, NSC750212 was compared to a negative control, Paclitaxel, and a positive control, Nocodazole, to determine whether its mechanism is via the inhibition of tubulin polymerization.

[2] = test system: human MYC-driven Burkitt Lymphoma line P493 xenografts; assay: Human lymphoma P493 xenograft in NSG mice; type: in vivo; details: intratumoral treatment for a week, vs DMSO control
murine lymphoma 6780 = assay: Proliferation of MYC-driven lymphoma line 6780; type: cell-based
Excerpt: as §2, §1, §3

tubulin = assay: Nano-fluidic proteomic immunoassay (NIA) of tubulin in treated tumors; type: in vivo, human
Experimental: NIA was performed using the ProteinSimple Nanopro 1000 machine. The final protein concentration loaded into each nano-fluidic capillary of the machine was 0.1 ug/uL. The primary antibody for Tubulin (Cell Signaling Technologies) was diluted 1:100. The primary antibody for HSP70 (Santa Cruz Biosciences) was diluted 1:500. The secondary anti-rabbit and anti-mouse HRP-conjugates were both diluted 1:100. Chemiluminescence signal was recorded after the addition of the detection reagent, which consists of a 1:1 ratio of luminol and peroxide. Analysis of the chemiluminescence data from NIA was performed via the ProteinSimple Compass software.
Fine needle aspirations (FNAs) are defined to be biopsies performed via the aspiration of the tumor using a needle of […] or smaller. Core biopsies are any biopsies done using a needle larger than […]. Techniques for performing FNAs and core biopsies are similar. The needle tip is plunged into the tumor and retracted, in a fast and repetitive motion, while applying suction at the needle tip. […]
To investigate if this mechanism is consistent in vivo, we used the Nano ImmunoAssay to analyze core biopsies and fine needle aspirates (FNA) of tumors during the course of treatment with NSC750212. […] There are no other charged isoforms of tubulin detected by NIA (FIG. 7, panel D).

KOPT-K1 (human T-ALL) = assay: Proliferation of lymphoma line KOPT-K1; type: cell-based
Excerpt: as §2, §1, §3

CCRF (T lymphoblast) = assay: Proliferation of lymphoma line CCRF; type: cell-based, human
Excerpt: as §2, §1, §3

[3] = test system: human B-cell Burkitt's lymphoma P493-6; assay: Proliferation of MYC-driven lymphoma line P493-6; type: cell-based; details: P-493
Excerpt: as §2, §1, §3

[4] = test system: human RCC A498 xenografts; assay: Human RCC A498 xenograft in NSG mice; type: in vivo; details: intratumoral treatment for a week, vs DMSO control

COc1cccc(C2C3=C(COC3=O)N(CCO)c3cc4c(cc32)OCCO4)c1 (centres unmarked) [NSC750722]
sensitivity of MYC-driven RCC line to compound (murine RCC E28 cells; 280 nM): very high sensitivity

O=C1OCC2=C1C(c1cccc(Br)c1)c1cc3c(cc1N2CCO)CCC3 (centres unmarked) [AR-038]
reduction in viability / suppression (human RCC A498 cell line): 90% | SAR analysis: relative activity (human RCC A498 cell line): promising activity

COc1cccc(C2C3=C(COC3=O)N(CCO)c3cc4c(cc32)CCC4)c1 (centres unmarked) [NSC750719]
sensitivity of MYC-driven RCC line to compound (murine RCC E28 cells; 280 nM): very high sensitivity

COc1cc(C2C3=C(COC3=O)N(CCO)c3cc4c(cc32)CCC4)cc(OC)c1OC (centres unmarked) [NSC750212]
maximal dose (maximally effective dose) [1]: 70 nM | reduction in proliferation ([1]; 70 nM): ~95% | change in suppression vs 70 nM ([1]; 140 nM): no dose response | levels of monoglycerols compared to untreated RCC (monoglycerols): elevated levels of monoglycerols | reduction in viability / suppression (human RCC A498 cell line): 95% | SAR analysis: relative activity (human RCC A498 cell line): most active | inhibition of tubulin polymerization (turbidity at 350 nm over 90 minutes) (bovine tubulin): more efficacious than Nocodazole | tumor burden [2]: significant reduction in tumor burden | reduction of cell proliferation compared to the vehicle control (DMSO) (murine RCC E28 cells; 70 nM, 48 hours): about 90% | suppression of proliferation when compared to 70 nM (murine RCC E28 cells; 140 nM, 48 hours): two-fold | sensitivity of MYC-driven RCC line to compound (murine RCC E28 cells; 280 nM): very high sensitivity | efficacy at higher concentration than 140 nM (murine RCC E28 cells; 280 nM, 48 hours): no further efficacy | reduction in proliferation (murine lymphoma 6780; 70 nM): ~90% | suppression of proliferation (murine lymphoma 6780; 140 nM): ~94% | suppression of proliferation (murine lymphoma 6780; 280 nM): maximal suppression | dose response (murine lymphoma 6780; 70, 140, 280 nM): dose-dependent response | lowered levels of tubulin expression vs control (tubulin; core biopsy of tumor during treatment): at least two-fold | lowered levels of tubulin expression vs control (tubulin; fine needle aspirate (FNA) of tumor during treatment): at least two-fold | suppression of proliferation (KOPT-K1 (human T-ALL); 70 nM): roughly 85% | suppression of proliferation (KOPT-K1 (human T-ALL); 140 nM): roughly 87% | reduction of proliferation (KOPT-K1 (human T-ALL); 280 nM): roughly 89% | dose response (KOPT-K1 (human T-ALL); 70, 140, 280 nM): dose-dependent response | reduction in proliferation (CCRF (T lymphoblast); 70 nM, vs control (DMSO)): ~90% | suppression of proliferation (CCRF (T lymphoblast); 140 nM): roughly 92% | suppression of proliferation (CCRF (T lymphoblast); 280 nM): about 96% | dose response (CCRF (T lymphoblast); 70, 140, 280 nM): dose-dependent response | suppression of proliferation ([3]; 70 nM): roughly 85% | reduction in proliferation ([3]; 140 nM): over 90% | suppression of proliferation ([3]; 280 nM): ~98% | dose response ([3]; 70, 140, 280 nM): dose-dependent response | tumor burden [4]: significant reduction in tumor burden
